Data from the supplement of paper PMC10307832.

The cell lines below were run with CO[C@@H]1[C@H](N(C)C(=O)c2ccccc2)C[C@H]2O[C@]1(C)n1c3ccccc3c3c4c(c5c6ccccc6n2c5c31)C(=O)NC4 [Midostaurin] + NC(=O)Nc1cc(-c2cccc(F)c2)sc1C(=O)N[C@H]1CCCNC1 [AZD7762] (partner 0.2 µM) (assay: relative viability (nuclei count vs DMSO), 5 days (fraction); higher = more cells survive). Conditions: first compound 0.03162 µM.
How it was run: (§1)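 Cells from lung cancer lines were seeded into 1536-well plates and, one day later, dosed by pin tool. Treatments were either a single drug or a fixed dose of an anchor drug with five library-drug doses (not always all listed) in √10 steps. After 5 days, nuclei were stained in a one-step fixation (final 0.05% Triton X-100, 1% formaldehyde, 1 ug/ml Hoechst) and counted on 4× images, and relative viability is the treated-to-vehicle nuclei ratio, as the median of duplicate plates.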
For HOP-62, the relative viability was 0.568.
In the case of NCI-H522, the relative viability is reported as 0.833.
With LU99A the relative viability was 0.441.
BEN was tested, and the relative viability was 0.659.
In the case of HARA, the relative viability is reported as 0.475.
SW 900 showed a relative viability of 0.684.
NCI-H322M was tested, and the relative viability was 0.703.
For LCLC-97TM1, the relative viability was 0.287.
For A-427, the relative viability was 0.727.
With NCI-H441 the relative viability was 0.888.
NCI-H1734 showed a relative viability of 0.537.
With NCI-H460 the relative viability was 0.626.
With NCI-H2347 the relative viability was 0.774.
For NCI-H1395, the relative viability was 0.427.
201T was tested, and the relative viability was 0.687.
For NCI-H1915, the relative viability was 0.679.
HCC-827 gave a relative viability of 0.206.
With LXF-289 the relative viability was 1.13.
In the case of NCI-H23, the relative viability is reported as 0.265.
Cell Line NCI-H647 has a relative viability of 0.392.
CAL-12T gave a relative viability of 0.553.
NCI-H1651 was tested, and the relative viability was 0.557.
EPLC-272H showed a relative viability of 0.287.
NCI-H1355 was tested, and the relative viability was 0.798.
In the case of NCI-H3122, the relative viability is reported as 0.908.
NCI-H1437 showed a relative viability of 1.1.
For NCI-H1755, the relative viability was 0.422.
Work on HCC-15 yielded a relative viability of 0.98.
NCI-H1793 gave a relative viability of 0.48.
PC-14 showed a relative viability of 0.42.

Same assay, conditions: first compound 0.1 µM
For NCI-H2405, the relative viability was 0.847.
In the case of HOP-62, the relative viability is reported as 0.727.
For NCI-H522, the relative viability was 0.864.
Cell Line LU99A has a relative viability of 0.303.
In the case of BEN, the relative viability is reported as 0.722.
HARA gave a relative viability of 0.394.
For SW 900, the relative viability was 0.617.
NCI-H322M gave a relative viability of 0.533.
In the case of LCLC-97TM1, the relative viability is reported as 0.223.
A-427 was tested, and the relative viability was 0.871.
Work on NCI-H441 yielded a relative viability of 0.984.
NCI-H1734 gave a relative viability of 0.543.
NCI-H460 was tested, and the relative viability was 0.635.
For NCI-H2347, the relative viability was 0.712.
Cell Line NCI-H1395 has a relative viability of 0.408.
Cell Line 201T has a relative viability of 0.595.
NCI-H1915 was tested, and the relative viability was 0.671.
Cell Line HCC-827 has a relative viability of 0.237.
LXF-289 showed a relative viability of 1.07.
In the case of NCI-H23, the relative viability is reported as 0.281.
NCI-H647 gave a relative viability of 0.41.
With CAL-12T the relative viability was 0.469.
NCI-H1651 was tested, and the relative viability was 0.459.
EPLC-272H was tested, and the relative viability was 0.259.
Work on NCI-H1355 yielded a relative viability of 0.766.
In the case of NCI-H3122, the relative viability is reported as 0.962.
NCI-H1437 was tested, and the relative viability was 1.06.
NCI-H1755 gave a relative viability of 0.447.
HCC-15 gave a relative viability of 0.532.
With NCI-H1793 the relative viability was 0.388.
Cell Line PC-14 has a relative viability of 0.329.

Same assay, conditions: first compound 0.3162 µM
With NCI-H2405 the relative viability was 0.75.
For HOP-62, the relative viability was 0.553.
With NCI-H522 the relative viability was 0.91.
LU99A was tested, and the relative viability was 0.255.
BEN gave a relative viability of 0.726.
HARA gave a relative viability of 0.299.
SW 900 showed a relative viability of 0.476.
Work on NCI-H322M yielded a relative viability of 0.582.
LCLC-97TM1 gave a relative viability of 0.275.
A-427 was tested, and the relative viability was 0.723.
NCI-H441 gave a relative viability of 1.1.
Cell Line NCI-H1734 has a relative viability of 0.39.
NCI-H460 showed a relative viability of 0.704.
For NCI-H2347, the relative viability was 0.587.
NCI-H1395 gave a relative viability of 0.429.
Work on 201T yielded a relative viability of 0.66.
With NCI-H1915 the relative viability was 0.709.
HCC-827 showed a relative viability of 0.215.
Cell Line LXF-289 has a relative viability of 1.09.
With NCI-H23 the relative viability was 0.14.
Work on NCI-H647 yielded a relative viability of 0.324.
In the case of CAL-12T, the relative viability is reported as 0.452.
NCI-H1651 showed a relative viability of 0.478.
Work on EPLC-272H yielded a relative viability of 0.165.
NCI-H1355 showed a relative viability of 0.674.
For NCI-H3122, the relative viability was 1.06.
For NCI-H1437, the relative viability was 1.11.
With NCI-H1755 the relative viability was 0.402.
HCC-15 was tested, and the relative viability was 1.07.
NCI-H1793 was tested, and the relative viability was 0.213.
PC-14 was tested, and the relative viability was 0.328.

What follows are cell lines tested with CO[C@@H]1[C@H](N(C)C(=O)c2ccccc2)C[C@H]2O[C@]1(C)n1c3ccccc3c3c4c(c5c6ccccc6n2c5c31)C(=O)NC4 [Midostaurin] + Cc1nc(Nc2ncc(C(=O)Nc3c(C)cccc3Cl)s2)cc(N2CCN(CCO)CC2)n1 [Dasatinib] (partner 0.075 µM) in the same assay as above. Conditions: first compound 0.01 µM.
How it was run: as §1
In the case of NCI-H2405, the relative viability is reported as 0.216.
With HOP-62 the relative viability was 0.674.
Work on NCI-H522 yielded a relative viability of 0.981.
Cell Line LU99A has a relative viability of 0.434.
BEN gave a relative viability of 0.371.
For HARA, the relative viability was 0.262.
For SW 900, the relative viability was 0.7.
NCI-H322M was tested, and the relative viability was 0.272.
LCLC-97TM1 showed a relative viability of 0.822.
With A-427 the relative viability was 0.726.
With NCI-H441 the relative viability was 0.677.
In the case of NCI-H1734, the relative viability is reported as 0.404.
In the case of NCI-H460, the relative viability is reported as 0.576.
NCI-H2347 gave a relative viability of 0.328.
For NCI-H1395, the relative viability was 0.435.
201T gave a relative viability of 0.557.
NCI-H1915 gave a relative viability of 0.359.
HCC-827 was tested, and the relative viability was 0.417.
In the case of LXF-289, the relative viability is reported as 0.21.
In the case of NCI-H23, the relative viability is reported as 0.88.
With NCI-H647 the relative viability was 0.181.
With CAL-12T the relative viability was 0.446.
Cell Line NCI-H1651 has a relative viability of 0.322.
Cell Line EPLC-272H has a relative viability of 0.381.
NCI-H1355 gave a relative viability of 0.796.
In the case of NCI-H3122, the relative viability is reported as 0.779.
NCI-H1437 gave a relative viability of 0.354.
In the case of NCI-H1755, the relative viability is reported as 0.413.
HCC-15 showed a relative viability of 0.735.
With NCI-H1793 the relative viability was 0.481.
PC-14 was tested, and the relative viability was 0.251.

Same assay, conditions: first compound 0.03162 µM
NCI-H2405 gave a relative viability of 0.199.
HOP-62 was tested, and the relative viability was 0.675.
Work on NCI-H522 yielded a relative viability of 0.995.
Work on LU99A yielded a relative viability of 0.549.
Cell Line BEN has a relative viability of 0.32.
In the case of HARA, the relative viability is reported as 0.22.
For SW 900, the relative viability was 0.684.
In the case of NCI-H322M, the relative viability is reported as 0.233.
For LCLC-97TM1, the relative viability was 0.798.
A-427 gave a relative viability of 0.63.
Work on NCI-H441 yielded a relative viability of 0.533.
Work on NCI-H1734 yielded a relative viability of 0.632.
NCI-H460 was tested, and the relative viability was 0.493.
For NCI-H2347, the relative viability was 0.305.
Cell Line NCI-H1395 has a relative viability of 0.38.
Cell Line 201T has a relative viability of 0.533.
For NCI-H1915, the relative viability was 0.334.
With HCC-827 the relative viability was 0.441.
Work on LXF-289 yielded a relative viability of 0.173.
For NCI-H23, the relative viability was 0.659.
Work on NCI-H647 yielded a relative viability of 0.209.
With CAL-12T the relative viability was 0.395.
NCI-H1651 gave a relative viability of 0.488.
NCI-H1355 was tested, and the relative viability was 0.777.
NCI-H3122 was tested, and the relative viability was 0.698.
NCI-H1437 gave a relative viability of 0.458.
With NCI-H1755 the relative viability was 0.447.
Cell Line HCC-15 has a relative viability of 0.655.
NCI-H1793 was tested, and the relative viability was 0.38.
PC-14 gave a relative viability of 0.253.

Same assay, conditions: first compound 0.1 µM
In the case of NCI-H2405, the relative viability is reported as 0.212.
